Assay results published in patent publication US20180312473A1, “PHENAZINE DERIVATIVES AS ANTIMICROBIAL AGENTS” (priority 2015, published 2018).
≈ marks a conversion by molar mass, not a printed value. Read-outs that look alike come from different tables or passages of the source.

Legend:
[1] = system: MRSA-2 (methicillin-resistant Staphylococcus aureus clinical isolate); test: MIC assay (broth microdilution, CLSI); type: cell-based; conditions: Staphylococcus aureus, MRSA
[2] = system: Staphylococcus epidermidis (ATCC 12228); test: MIC assay (broth microdilution, CLSI); type: cell-based; conditions: Staphylococcus epidermidis, ATCC12228
[3] = system: Staphylococcus epidermidis (ATCC 35984), MRSE; test: MIC assay (broth microdilution, CLSI); type: cell-based; conditions: Staphylococcus epidermidis
[4] = system: Enterococcus faecium (ATCC 700221), VRE; test: MIC assay (broth microdilution, CLSI); type: cell-based
[5] = in vitro; type: cell-based; conditions: human
Protocol: (§1) The cytotoxicities of select compounds of the invention against HeLa cells were determined. HeLa cytotoxicity was assessed using the LDH release assay described by CYTOTOX96 (Promega G1780). HeLa cells were grown in Dulbecco's Modified Eagle Medium (DMEM; Gibco) supplemented with 10% Fetal Bovine Serum (FBS) at 37° C. with 5% CO2. […] Triton X-100 (at 2% v/v) was used as the positive control for maximum lactate dehydrogenate (LDH) activity in this assay (e.g., complete cell death), while “medium only” lanes served as negative control lanes (e.g., no cell death). DMSO was used as the vehicle control. […] Finally, Stop Solution (50 μL) was added to the incubating plates, and the absorbance was measured at 490 nm.
(§2) HeLa cytotoxicity was assessed using the LDH release assay described by CYTOTOX96 (Promega G1780). HeLa cells were grown in Dulbecco's Modified Eagle Medium (DMEM; Gibco) supplemented with 10% Fetal Bovine Serum (FBS) at 37° C. with 5% CO2. […] Triton X-100 (at 2% v/v) was used as the positive control for maximum lactate dehydrogenate (LDH) activity in this assay (e.g., complete cell death), while “medium only” lanes served as negative control lanes (e.g., no cell death). DMSO was used as our vehicle control. […] Finally, Stop Solution (50 μL) was added to the incubating plates and the absorbance was measured at 490 nm. Results are from three independent experiments (FIG. 19)

[6] = system: HeLa cells; test: in vitro; type: cell-based; conditions: human, 24 h
Protocol: as §1, §2

[7] = system: human red blood cells; test: Hemolysis assay with red blood cells; conditions: human, 1 h, 200 μM, pH 7.2
Summary of the method: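 Hemolysis expressed as percent of the Triton X signal with DMSO as zero, using OD405 of supernatant. Compounds from DMSO stocks were incubated with triple-washed human erythrocytes for 1 hour at 37° C. before centrifugation; three independent experiments.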

[8] = system: MRSA-2 planktonic cells and biofilms; test: Calgary Biofilm Device (CBD) assay, MBC/MBEC; type: cell-based, Staphylococcus aureus; conditions: Staphylococcus aureus, MRSA
[9] = system: MRSE (S. epidermidis ATCC 35984) planktonic cells and biofilms; test: Calgary Biofilm Device (CBD) assay, MBC/MBEC; type: cell-based, Staphylococcus epidermidis; conditions: for MBC: Staphylococcus epidermidis
[10] = system: VRE (E. faecium ATCC 700221) planktonic cells and biofilms; test: Calgary Biofilm Device (CBD) assay, MBC/MBEC; type: cell-based, Enterococcus faecium; conditions: c lowest concentration tested; for MBC: Enterococcus
[11] = system: methicillin-resistant S. aureus (MRSA) strains; test: MIC assay, values summarised over MRSA strains; type: cell-based, Staphylococcus aureus
[12] = system: MRSA BAA-44; test: MIC assay (broth microdilution, CLSI); conditions: Staphylococcus aureus, read-out: MIC, MRSA BAA-44
[13] = system: MRSA-1 (methicillin-resistant Staphylococcus aureus clinical isolate); test: MIC assay (broth microdilution, CLSI); type: cell-based; conditions: read-out: MIC, MRSA-1
[14] = system: M. tuberculosis H37Ra (ATCC 25177); test: Mycobacterium tuberculosis MIC assay; type: cell-based
Protocol: (§3) The culture was then diluted with fresh medium until an OD600 of 0.01 was reached. […] The final DMSO concentration was maintained at 0.5%. […] Three rows were reserved for each compound. […] OD600 absorbance was recorded using SPECTRAMAX M5 (Molecular Devices). Data obtained from three independent experiments were analyzed using Excel.
as §3, with “EXCEL.” for “Excel.”

[15] = system: MRSA BAA-1707; test: MIC assay (broth microdilution, CLSI); conditions: Staphylococcus aureus, read-out: MIC, MRSA BAA-1707
[16] = system: MRSA BAA-1707 planktonic cells and biofilms; test: Calgary Biofilm Device (CBD) assay, MBC/MBEC; conditions: Staphylococcus aureus, read-out: MRSA BAA-1707 MBC
[17] = system: MRSA BAA-44 planktonic cells and biofilms; test: Calgary Biofilm Device (CBD) assay, MBC/MBEC; conditions: Staphylococcus aureus, read-out: MRSA BAA-44 MBC
[18] = Table 2A, read-out: MIC, Staphylococcus epidermidis (ATCC 12228)
[19] = Table 7, b lowest concentration tested, read-out: MIC, S. epidermidis 12228
[20] = Table 7, read-out: MIC, MRSE 35984
[21] = Enterococcus faecium, Table 2A, read-out: MIC, Enterococcus faecium (ATCC 700221)
[22] = Table 7, b lowest concentration tested, read-out: MIC, VRE 700221
[23] = Table 8, a/b 2-/4-fold range in independent experiments, read-out: MRSA-2 MBC
[24] = Table 8, read-out: VRE 700221 MBC

Compound | MIC [2, 18] [µM] | MIC [2, 19] [µM] | MIC [3, 20] [µM] | MIC [4, 21] [µM] | MIC [4, 22] [µM] | IC50 at 24 h [5] [µM] | IC50 [6] [µM] | % Hemolysis (200 μM) [7] [%] | % Hemolysis at 200 μM [7] [%] | MBC [8, 23] [µM] | MBC [10, 24] [µM] | growth inhibition activity against at least one MRSA strain [11] | melting point [°C] | MIC [12] [µM] | MIC [15] [µM] | MBC [16] [µM] | also measured
Oc1c(Br)cc(Cl)c2nc3ccccc3nc12 [Compound 7, 2-Bromo-4-chloro-1-hydroxyphenazine] | 1.56 to 3.13 (≈ 0.483 to 0.969 µg/mL) | 2.35 (≈ 0.727 µg/mL) | 1.56 (≈ 0.483 µg/mL) | 6.25 (≈ 1.93 µg/mL) | 6.25 (≈ 1.93 µg/mL) | > 100 | > 100 | ≤1 | ≤1 | 46.9 (≈ 14.5 µg/mL) | 7.8 (≈ 2.41 µg/mL) | sub-micromolar | 212 to 214 | 1.56 (≈ 0.483 µg/mL) | – | – | MIC ([1]; Table 2A, read-out: MIC, MRSA-2): 1.56 µM (≈ 0.483 µg/mL); MIC ([1]; Table 7, a midpoint of 2-fold range, b lowest concentration tested, read-out: MIC, MRSA-2): 1.56 µM (≈ 0.483 µg/mL); MIC ([3]; Table 2A, read-out: MIC, Staphylococcus epidermidis (ATCC 35984)): 1.56 µM (≈ 0.483 µg/mL); MBC ([8]; Table 4, read-out: MBC, MRSA-2): 46.9 µM (≈ 14.5 µg/mL); MBC ([9]; Table 8, read-out: MRSE 35984 MBC): 11.7 µM (≈ 3.62 µg/mL)
Oc1c(Br)cc(Br)c2nc3cc(Br)c(Br)cc3nc12 [Compound 17, 2,4,7,8-tetrabromo-1-hydroxyphenazine] | 0.05 to 0.1 (≈ 0.0256 to 0.0512 µg/mL) | 0.08 (≈ 0.0409 µg/mL) | – | 0.39 (≈ 0.2 µg/mL) | 0.39 (≈ 0.2 µg/mL) | > 100 | > 100 | ≤1 | – | – | 0.39 (≈ 0.2 µg/mL) | – | – | 25 (≈ 12.8 µg/mL) | 12.5 (≈ 6.4 µg/mL) | 6.25 (≈ 3.2 µg/mL) | MIC ([1]; read-out: MIC, MRSA-2): 6.25 µM (≈ 3.2 µg/mL); MIC ([1]; read-out: MIC, MRSA-2, Table 2B, a midpoint of 2-fold range, * partial growth inhibition at highest concentration): 6.25 µM (≈ 3.2 µg/mL); MIC ([1]; read-out: MIC, MRSA-2, Table 7, a midpoint of 2-fold range, b lowest concentration tested): 6.25 µM (≈ 3.2 µg/mL); MIC ([13]; Staphylococcus aureus, MRSA): 12.5 µM (≈ 6.4 µg/mL); MIC ([13]; Table 2B, b lowest concentration tested): 12.5 µM (≈ 6.4 µg/mL); MIC ([4]; Enterococcus faecium, Table 2B, b lowest concentration tested, read-out: MIC, Enterococcus faecium (ATCC 700221)): 0.39 µM (≈ 0.2 µg/mL); MIC ([14]; Mycobacterium tuberculosis, 168 h, M. tuberculosis H37Ra, 7 days, read-out: Mtb MIC): > 50 µM; MIC ([14]; Mycobacterium tuberculosis, Table 7, read-out: MIC, M. tuberculosis H37Ra): > 50 µM; MIC ([14]; Table 7, read-out: MIC, M. tuberculosis H37Ra): >50 µM; MBC ([9]; read-out: MBC, Staphylococcus epidermidis (ATCC 35984)): 1.56 µM (≈ 0.798 µg/mL); MBC ([9]; read-out: MRSE 35984 MBC): 1.56 µM (≈ 0.798 µg/mL); MBC ([9]; read-out: MRSE MBC): 1.56 µM (≈ 0.798 µg/mL); MBEC, Staphylococcus epidermidis (ATCC 35984) ([9]; Table 4): 6.25 µM; MRSE MBEC ([9]; Table 5): 6.25 µM; MBC ([10]; Table 5, read-out: VRE MBC): 0.39 µM (≈ 0.2 µg/mL); VRE MBEC ([10]; Table 5): 0.39/0.39 μM; MBC [17]: 50 µM (≈ 25.6 µg/mL)
Oc1c(Br)cc(Br)c2nc3ccc(Br)cc3nc12 [Compound 18, 2,4,8-Tribromo-1-hydroxyphenazine] | – | 3.13 (≈ 1.35 µg/mL) | 3.13 (≈ 1.35 µg/mL) | – | – | – | – | – | 2.1 | 50 (≈ 21.6 µg/mL) | – | sub-micromolar | 239 to 241 | – | 0.2 (≈ 0.0866 µg/mL) | 12.5 (≈ 5.41 µg/mL) | MIC ([11]; Staphylococcus aureus, MRSA, range over the MRSA strains/isolates tested, read-out: MIC against MRSA strains): 0.15 to 0.78 µM (≈ 0.0649 to 0.338 µg/mL)
